Results: patent US20100226853A1 (priority 2007, published 2010)
Where two headings read alike, the source gives them in different places.

Columns and labels:
SRC [1] = molecular target: T1, SRC (Homo sapiens, UniProt P12931); type: biochemical; details: read-out: IC50, Src protein
Protocol: Kinase was preincubated with inhibitor at 37° C. for 10 min prior to starting the reaction upon addition of ATP; Assay was carried out in 384 well clear plates (Corning) and absorbance was measured on SpectraMax plate reader (Molecular Devices). Reaction rates were plotted against inhibitor concentration and fitted using SigmaPlot 9.0 (Systat Software Inc.).

1% bovine serum albumin = molecular target: T2, 1% bovine serum albumin (Bos taurus, UniProt P02769); test: Protein binding assay, BSA; type: in vitro ADME
T2 construct: from tissue; host or cells: bovine serum (from the protein's name)
Protocol: Protein binding of the radiotracers were determined adding 37 kBq (1 μCi) of each radioligand to samples of 1% bovine serum albumin and 1 mL of fresh human serum. The protein was precipitated by adding 1 mL of ice cold 20% trichloroacetic acid and the suspension centrifuged and washing with 1 mL of 20% ice cold trichloroacetic acid. The protein pellets and supernatants were counted in a gamma counter to determine the protein binding of the radioligands.

SRC [2] = molecular target: T1, SRC; test: biochemical
Source text: An ELISA-based assay was used in which the phosphorylation of an oligopeptide substrate was detected by an HRP-conjugated anti-p-Tyr (PY20) probe.

TYRO3 = molecular target: T3, TYRO3 (Homo sapiens, UniProt Q06418); test: QuickScout ELISA kinase panel; type: biochemical; details: Compound 5 at 10 nM
T3 construct: purchased Carna Biosciences (QuickScout service)
Source text: (§1) . […] An ELISA-based assay was used in which the phosphorylation of an oligopeptide substrate was detected by an HRP-conjugated anti-p-Tyr (PY20) probe. […]. The data appears in Table 2 in Example 3.

FLT3 = molecular target: T4, FLT3 (Homo sapiens, UniProt P36888); test: QuickScout ELISA kinase panel; type: biochemical; details: Compound 5 at 10 nM
T4 construct: purchased Carna Biosciences (Kobe, Japan), QuickScout service
Source text: as §1

ACK = molecular target: T5, ACK (Homo sapiens, UniProt Q07912); test: QuickScout ELISA kinase panel; type: biochemical; details: Compound 5 at 10 nM
T5 construct: purchased Carna Biosciences (QuickScout service)
Source text: as §1

PDGFR— = molecular target: T6, PDGFR— (Homo sapiens, UniProt P16234); test: QuickScout ELISA kinase panel; type: biochemical; details: Compound 5 at 10 nM
T6 construct: purchased Carna Biosciences (Kobe, Japan), QuickScout service
Source text: as §1

EphA2 = molecular target: T7, EphA2 (Homo sapiens, UniProt P29317); test: QuickScout ELISA kinase panel; type: biochemical; details: Compound 5 at 10 nM
T7 construct: purchased Carna Biosciences (QuickScout service)
Source text: as §1

TEC = molecular target: T8, TEC (Homo sapiens, UniProt P42680); test: QuickScout ELISA kinase panel; type: biochemical; details: Compound 5 at 10 nM
T8 construct: purchased Carna Biosciences (Kobe, Japan), QuickScout service
T8 sequence (P42680 1-631): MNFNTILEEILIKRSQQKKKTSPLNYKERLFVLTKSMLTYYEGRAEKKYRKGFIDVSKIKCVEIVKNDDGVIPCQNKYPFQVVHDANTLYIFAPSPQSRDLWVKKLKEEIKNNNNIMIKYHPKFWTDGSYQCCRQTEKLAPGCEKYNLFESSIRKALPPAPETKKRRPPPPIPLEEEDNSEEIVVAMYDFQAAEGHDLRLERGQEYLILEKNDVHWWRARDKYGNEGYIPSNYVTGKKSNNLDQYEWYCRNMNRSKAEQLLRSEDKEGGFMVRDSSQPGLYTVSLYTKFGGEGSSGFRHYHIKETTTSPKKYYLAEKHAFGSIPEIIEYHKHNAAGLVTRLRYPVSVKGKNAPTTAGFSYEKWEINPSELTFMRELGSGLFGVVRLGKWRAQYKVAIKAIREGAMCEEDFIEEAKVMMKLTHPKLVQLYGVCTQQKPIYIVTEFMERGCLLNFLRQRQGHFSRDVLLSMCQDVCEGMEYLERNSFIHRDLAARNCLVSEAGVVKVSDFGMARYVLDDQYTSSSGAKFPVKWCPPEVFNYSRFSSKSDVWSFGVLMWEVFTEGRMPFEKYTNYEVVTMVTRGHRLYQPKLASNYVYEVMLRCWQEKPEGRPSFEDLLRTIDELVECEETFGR
Source text: as §1

EphB4 = molecular target: T9, EphB4 (Homo sapiens, UniProt P54760); test: QuickScout ELISA kinase panel; type: biochemical; details: Compound 5 at 10 nM
T9 construct: purchased Carna Biosciences (QuickScout service)
Source text: as §1

JAK3 = molecular target: T10, JAK3 (Homo sapiens, UniProt P52333); test: QuickScout ELISA kinase panel; type: biochemical; details: Compound 5 at 10 nM
T10 construct: purchased Carna Biosciences (QuickScout service)
Source text: as §1

T1 sequence (P12931 whole entry): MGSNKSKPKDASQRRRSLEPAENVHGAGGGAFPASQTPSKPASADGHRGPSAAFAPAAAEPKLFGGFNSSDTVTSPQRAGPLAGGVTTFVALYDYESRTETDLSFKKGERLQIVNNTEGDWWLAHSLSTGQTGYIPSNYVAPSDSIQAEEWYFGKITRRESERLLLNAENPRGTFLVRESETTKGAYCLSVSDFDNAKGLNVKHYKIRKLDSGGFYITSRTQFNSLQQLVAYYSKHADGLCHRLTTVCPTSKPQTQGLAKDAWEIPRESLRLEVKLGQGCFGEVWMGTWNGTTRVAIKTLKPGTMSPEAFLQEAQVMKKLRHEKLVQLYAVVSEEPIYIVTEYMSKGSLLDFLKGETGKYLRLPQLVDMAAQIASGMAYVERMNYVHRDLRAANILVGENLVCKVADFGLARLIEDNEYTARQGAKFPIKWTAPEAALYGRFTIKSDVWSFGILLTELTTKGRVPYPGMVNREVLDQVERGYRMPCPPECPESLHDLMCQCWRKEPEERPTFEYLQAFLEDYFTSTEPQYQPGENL
T2 sequence (P02769 25-607): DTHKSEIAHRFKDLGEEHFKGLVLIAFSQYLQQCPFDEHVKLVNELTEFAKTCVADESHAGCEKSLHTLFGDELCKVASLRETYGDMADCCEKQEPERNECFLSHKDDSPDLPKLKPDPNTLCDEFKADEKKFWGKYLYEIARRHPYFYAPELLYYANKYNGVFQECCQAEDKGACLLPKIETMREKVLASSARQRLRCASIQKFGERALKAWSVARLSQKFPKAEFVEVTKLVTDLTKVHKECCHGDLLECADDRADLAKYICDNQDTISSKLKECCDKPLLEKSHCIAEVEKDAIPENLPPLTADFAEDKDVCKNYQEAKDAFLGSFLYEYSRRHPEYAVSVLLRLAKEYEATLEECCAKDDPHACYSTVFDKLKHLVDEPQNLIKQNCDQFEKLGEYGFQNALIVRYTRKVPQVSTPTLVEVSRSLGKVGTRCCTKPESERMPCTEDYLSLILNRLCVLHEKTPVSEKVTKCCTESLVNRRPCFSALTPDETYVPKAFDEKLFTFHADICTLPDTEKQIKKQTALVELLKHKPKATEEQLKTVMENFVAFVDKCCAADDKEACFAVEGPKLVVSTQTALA
T10 sequence (P52333 whole entry): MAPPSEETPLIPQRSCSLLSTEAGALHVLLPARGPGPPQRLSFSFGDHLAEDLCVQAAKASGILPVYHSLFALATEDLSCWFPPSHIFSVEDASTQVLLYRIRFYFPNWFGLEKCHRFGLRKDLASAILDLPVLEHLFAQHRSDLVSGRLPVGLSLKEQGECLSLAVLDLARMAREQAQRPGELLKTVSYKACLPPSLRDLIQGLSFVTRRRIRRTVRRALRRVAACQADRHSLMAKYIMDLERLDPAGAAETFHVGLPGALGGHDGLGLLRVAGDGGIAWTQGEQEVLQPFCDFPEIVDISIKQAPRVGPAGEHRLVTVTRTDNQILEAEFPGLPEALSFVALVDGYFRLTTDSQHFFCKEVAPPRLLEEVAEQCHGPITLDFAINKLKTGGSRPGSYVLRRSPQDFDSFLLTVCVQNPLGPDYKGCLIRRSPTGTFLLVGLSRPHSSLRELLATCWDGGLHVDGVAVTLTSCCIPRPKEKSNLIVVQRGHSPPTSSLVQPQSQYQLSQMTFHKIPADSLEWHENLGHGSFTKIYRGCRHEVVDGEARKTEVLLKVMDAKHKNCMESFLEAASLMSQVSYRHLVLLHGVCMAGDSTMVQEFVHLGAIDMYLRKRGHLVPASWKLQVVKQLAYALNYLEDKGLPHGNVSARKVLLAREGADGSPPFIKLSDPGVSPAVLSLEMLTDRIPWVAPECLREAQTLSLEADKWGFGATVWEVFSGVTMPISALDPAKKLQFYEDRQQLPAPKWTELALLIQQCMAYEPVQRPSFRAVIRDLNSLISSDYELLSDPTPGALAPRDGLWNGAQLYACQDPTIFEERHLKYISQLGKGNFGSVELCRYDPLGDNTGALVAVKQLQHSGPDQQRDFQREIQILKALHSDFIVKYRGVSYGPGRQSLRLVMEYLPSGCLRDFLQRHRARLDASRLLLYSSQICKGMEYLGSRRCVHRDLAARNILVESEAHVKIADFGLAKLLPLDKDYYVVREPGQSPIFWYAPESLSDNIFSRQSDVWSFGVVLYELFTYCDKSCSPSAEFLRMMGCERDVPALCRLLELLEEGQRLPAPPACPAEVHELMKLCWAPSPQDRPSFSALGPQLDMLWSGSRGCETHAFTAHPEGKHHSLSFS
T7 sequence (P29317 24-976): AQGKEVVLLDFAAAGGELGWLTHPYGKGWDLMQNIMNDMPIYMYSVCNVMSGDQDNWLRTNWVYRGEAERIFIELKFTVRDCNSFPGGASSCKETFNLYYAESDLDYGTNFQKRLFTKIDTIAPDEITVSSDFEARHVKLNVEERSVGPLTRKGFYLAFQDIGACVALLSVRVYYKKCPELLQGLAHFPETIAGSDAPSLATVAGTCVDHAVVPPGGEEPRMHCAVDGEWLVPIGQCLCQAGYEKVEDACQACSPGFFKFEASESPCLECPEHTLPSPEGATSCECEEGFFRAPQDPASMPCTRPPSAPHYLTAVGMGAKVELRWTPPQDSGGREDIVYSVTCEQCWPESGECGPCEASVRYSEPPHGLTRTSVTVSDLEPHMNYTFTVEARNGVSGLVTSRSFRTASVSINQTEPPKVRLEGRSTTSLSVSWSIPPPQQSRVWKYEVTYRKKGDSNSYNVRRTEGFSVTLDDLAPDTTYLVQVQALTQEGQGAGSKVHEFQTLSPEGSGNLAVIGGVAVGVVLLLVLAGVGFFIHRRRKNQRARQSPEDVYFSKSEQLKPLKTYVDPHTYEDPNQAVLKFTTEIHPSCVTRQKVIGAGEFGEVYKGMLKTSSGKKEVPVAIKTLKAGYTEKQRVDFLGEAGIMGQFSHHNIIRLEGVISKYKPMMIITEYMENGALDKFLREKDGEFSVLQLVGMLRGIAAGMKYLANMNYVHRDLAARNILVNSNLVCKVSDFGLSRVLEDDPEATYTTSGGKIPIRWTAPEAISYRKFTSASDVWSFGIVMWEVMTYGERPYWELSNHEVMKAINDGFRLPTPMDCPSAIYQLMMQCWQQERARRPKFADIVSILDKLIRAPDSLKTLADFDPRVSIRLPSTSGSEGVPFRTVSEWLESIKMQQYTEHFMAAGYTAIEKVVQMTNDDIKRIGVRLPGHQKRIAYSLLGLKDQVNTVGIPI
T4 sequence (P36888 27-993): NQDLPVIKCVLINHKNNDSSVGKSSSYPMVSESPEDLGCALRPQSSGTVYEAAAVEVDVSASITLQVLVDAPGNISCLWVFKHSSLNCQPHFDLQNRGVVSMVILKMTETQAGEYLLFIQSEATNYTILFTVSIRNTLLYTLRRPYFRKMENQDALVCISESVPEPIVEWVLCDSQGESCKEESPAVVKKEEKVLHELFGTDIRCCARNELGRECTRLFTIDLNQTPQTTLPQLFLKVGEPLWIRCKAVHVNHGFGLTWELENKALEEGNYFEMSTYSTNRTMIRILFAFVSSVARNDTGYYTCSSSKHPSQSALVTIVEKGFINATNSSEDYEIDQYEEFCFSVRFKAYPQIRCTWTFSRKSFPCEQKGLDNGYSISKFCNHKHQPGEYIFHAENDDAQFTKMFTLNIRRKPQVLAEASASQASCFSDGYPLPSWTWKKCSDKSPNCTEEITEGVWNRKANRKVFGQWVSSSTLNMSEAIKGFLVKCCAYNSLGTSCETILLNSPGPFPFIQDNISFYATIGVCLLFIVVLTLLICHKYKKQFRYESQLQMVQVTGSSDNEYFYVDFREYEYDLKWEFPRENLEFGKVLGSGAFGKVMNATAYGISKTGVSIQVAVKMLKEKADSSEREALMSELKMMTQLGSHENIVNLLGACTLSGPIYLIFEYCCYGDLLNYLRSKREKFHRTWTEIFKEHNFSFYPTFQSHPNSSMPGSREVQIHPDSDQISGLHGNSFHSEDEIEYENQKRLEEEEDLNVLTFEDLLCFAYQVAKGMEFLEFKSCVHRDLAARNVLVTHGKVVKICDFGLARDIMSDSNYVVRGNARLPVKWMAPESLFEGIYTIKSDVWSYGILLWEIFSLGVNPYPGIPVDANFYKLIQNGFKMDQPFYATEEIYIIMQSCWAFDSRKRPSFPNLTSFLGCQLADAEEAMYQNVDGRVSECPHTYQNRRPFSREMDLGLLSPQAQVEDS
T6 sequence (P16234 550-1089 limits assumed): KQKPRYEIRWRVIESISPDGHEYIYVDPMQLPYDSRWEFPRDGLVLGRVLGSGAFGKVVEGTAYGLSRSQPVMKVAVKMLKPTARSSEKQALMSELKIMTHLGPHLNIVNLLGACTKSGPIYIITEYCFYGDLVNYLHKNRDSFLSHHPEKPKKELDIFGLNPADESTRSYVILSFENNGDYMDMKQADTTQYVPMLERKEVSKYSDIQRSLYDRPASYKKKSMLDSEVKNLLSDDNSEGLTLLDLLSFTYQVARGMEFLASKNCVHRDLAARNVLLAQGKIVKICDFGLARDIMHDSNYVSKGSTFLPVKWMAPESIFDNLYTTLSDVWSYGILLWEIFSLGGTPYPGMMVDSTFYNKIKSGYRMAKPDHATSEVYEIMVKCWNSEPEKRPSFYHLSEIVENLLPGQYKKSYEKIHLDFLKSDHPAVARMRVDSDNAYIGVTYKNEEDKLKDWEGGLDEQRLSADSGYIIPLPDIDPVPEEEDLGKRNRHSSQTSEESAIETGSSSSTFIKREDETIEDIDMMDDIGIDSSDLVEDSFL

## Cc1nc(Nc2ncc(C(=O)Nc3c(C)cccc3Cl)s2)cc(N2CCN(CCF)CC2)n1 [Compound 5, N-(2-Chloro-6-methylphenyl)-2-(6-(4-(2-fluoroethyl)piperazin-1-yl)-2-methylpyrimidin-4-ylamino)thiazole-5-carboxamide]
SRC [1]
  IC50: 3.5 ± 2.2 nM
1% bovine serum albumin
  protein bound in 1% BSA: 99.0±0.3%
SRC [2]
  IC50: < 2 nM
SRC [2]; Compound 5 at 10 nM, 0.01 µM
  % Inhibition of Kinase Activity, SRC: 97.5%
SRC [2]; read-out: % Inhibition of Kinase Activity, SRC, Compound 5 at 10 nM
  inhibition at 0.01 µM: > 97%
TYRO3
  inhibition at 0.01 µM: 23.1%
FLT3
  inhibition at 0.01 µM: 0.3%
ACK
  inhibition at 0.01 µM: 83.1%
PDGFR—
  inhibition at 0.01 µM: 86%
EphA2
  inhibition at 0.01 µM: 98.1%
TEC
  inhibition at 0.01 µM: 98.1%
EphB4
  inhibition at 0.01 µM: 97%
JAK3
  inhibition at 0.01 µM: 16%
